From patent US12612412B2, “Antiviral heterocyclic compounds” (Enanta Pharmaceuticals, Inc., priority 2021, dated 2026) come the findings set out here.

Molecules are shown by their SMILES.

One experiment relates to genotype A, "Long" strain RSV. Nature of the experiment: RSV-A assay (CPE protection in Hep-2 cells, ATPlite readout). The settings on record: human respiratory syncytial virus, RSV-A Long strain, MOI 0.1, CPE protection, read-out: Human RSV-A (“Long”) EC50. Format: cell-based, Human respiratory syncytial virus (HRSV). The procedure, abridged:
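Protection from RSV-induced cytopathic effect measured by ATP content (ATPlite) after 5-day culture. Infection used genotype A Long virus at MOI 0.1 on 8,000 Hep-2 cells per well, with compound serially diluted 2-fold; values are EC50.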
With `Cc1cnc2c(OC(F)F)cc(C(=O)NC[C@](O)(c3cc4c(c(-c5ccc(F)c(C(F)(F)F)c5)n3)OC[C@]4(C)C(N)=O)C3CC3)cc2c1` [Example 1208], the EC50 was below 200 nM. On the same count and under the same terms, for `COc1cc(C(=O)NC[C@](O)(c2cc3c(c(-c4cc(Cl)cc(Cl)c4)n2)OC[C@]3(C)C(N)=O)C2CC2)cc2cn(C3CC3)nc12` [Example 1281] the value was below 200 nM; for `CNC(=O)[C@@]1(C)COc2c1cc([C@@](O)(CNC(=O)c1cc(OC)c3nn(C4CC4)cc3c1)C(F)(F)F)nc2-c1ccc(F)c(F)c1Cl` [Example 1202], below 200 nM. Same read-out and setting: to `Cc1cc2cc(C(=O)NC[C@](O)(c3cc4c(c(-c5ccc(F)cc5)n3)OC[C@]4(C)C(N)=O)C(F)(F)F)cc(OC3CC3)c2nc1Cl` [Example 1075] belongs below 200 nM; to `CNC(=O)[C@@]1(C)COc2c1cc([C@@](O)(CNC(=O)c1cc(OC)c3nn(C4CC4)cc3c1)C(F)(F)F)nc2-c1cc(Cl)c(F)cc1F` [Example 1203], below 200 nM; to `COc1cc(C(=O)NCC(O)(c2cc3c(c(Br)n2)OC[C@]3(C)C(N)=O)C(F)(F)F)cc2cn(C3CC3)nc12` (stereo partly drawn) [Example 890], above 200 nM. On the same count and under the same terms, for `CNC(=O)[C@@]1(C)COc2c1cc([C@@](O)(CNC(=O)c1cc(OC)c3nn(C4CC4)cc3c1)C1CC1)nc2-c1ccc(F)cc1` [Example 1290] the value was below 200 nM; for `COc1cc(C(=O)NCC(O)(c2cc3c(c(-c4cc(Cl)cc(Cl)c4)n2)OC[C@]3(C)C(N)=O)C(F)(F)F)cc2cn(C3CC3)nc12` (stereo partly drawn) [Example 1256], below 200 nM.

Still in this experiment, the particulars now being: human respiratory syncytial virus, genotype A “Long” strain RSV, MOI 0.1, CPE protection, read-out: Human RSV-A (“Long”).
Regarding `COc1cc(C(=O)NC[C@](O)(c2cc3c(c(-c4ccc(F)cc4)n2)OC[C@]3(C)C(N)=O)C(F)(F)F)cn2cc(C(N)=O)nc12` [Example 61], the EC50 was below 200 nM. `C[C@]1(C(N)=O)COc2c1cc([C@@](O)(CNC(=O)c1cc3ncccc3s1)C(F)(F)F)nc2-c1ccc(F)cc1` [Example 371]: the EC50 was above 200 nM.

Consider `C[C@]1(C(N)=O)COc2c1cc([C@@](O)(CNC(=O)c1ccnc3cc[nH]c13)C(F)(F)F)nc2-c1ccc2c(c1)OC(F)(F)O2` [Example 701], for which the EC50 was below 200 nM. Still for that read-out and setting: for `C[C@]1(C(N)=O)COc2c1cc([C@@](O)(CNC(=O)c1ncc[nH]1)C(F)(F)F)nc2-c1ccc(F)cc1` [Example 426] the value was above 200 nM.

On to `C[C@]1(C(N)=O)COc2c1cc([C@@](O)(CNC(=O)c1cc3cccnc3s1)C(F)(F)F)nc2-c1ccc(F)cc1` [Example 377], for which the EC50 was above 200 nM. Same read-out and setting: for `C[C@]1(C(N)=O)COc2c1cc([C@@](O)(CNC(=O)c1cnc3nc(C4CC4)sc3c1)C(F)(F)F)nc2-c1ccc(F)cc1` [Example 21] the value was below 200 nM.

Regarding `COc1ncc(F)cc1C(=O)NC[C@](O)(c1cc2c(c(-c3ccc(F)cc3)n1)OC[C@]2(C)C(N)=O)C(F)(F)F` [Example 412], the EC50 was above 200 nM. For the molecule `C[C@]1(C(N)=O)COc2c1cc([C@@](O)(CNC(=O)c1cc(OC3CC3)c3[nH]ccc3c1)C(F)(F)F)nc2-c1ccc(F)cc1` [Example 206], the EC50 was below 200 nM. The same measure, in the same setting: to `C[C@]1(C(N)=O)COc2c1cc([C@@](O)(CNC(=O)c1ccc3[nH]ccc3c1F)C(F)(F)F)nc2-c1ccc(F)cc1` [Example 438] belongs above 200 nM. The same measure, in the same setting: for `C[C@]1(C(N)=O)COc2c1cc([C@@](O)(CNC(=O)c1ccc3nc(NS(C)(=O)=O)sc3c1)C(F)(F)F)nc2-c1ccc(F)cc1` [Example 140] the value was above 200 nM. Take `Cc1nc2cc(C(=O)NC[C@](O)(c3cc4c(c(-c5ccc(F)cc5)n3)OC[C@]4(C)C(N)=O)C(F)(F)F)ccc2o1` [Example 375]: the EC50 was above 200 nM. On the same count and under the same terms, to `C[C@]1(C(N)=O)COc2c1cc([C@@](O)(CNC(=O)c1cc3ccccn3n1)C(F)(F)F)nc2-c1ccc(F)cc1` [Example 392] belongs above 200 nM; to `C[C@]1(C(N)=O)COc2c1cc([C@@](O)(CNC(=O)c1nc(-c3ccccc3)c[nH]1)C(F)(F)F)nc2-c1ccc(F)cc1` [Example 212], above 200 nM; to `C[C@]1(C(N)=O)COc2c1cc([C@@](O)(CNC(=O)c1ccc3nc(N)cn3c1)C(F)(F)F)nc2-c1ccc(F)cc1` [Example 56], above 200 nM.

In the case of `C[C@]1(C(N)=O)COc2c1cc([C@@](O)(CNC(=O)c1cnc3cc[nH]c3c1)C(F)(F)F)nc2-c1ccc(F)cc1` [Example 343], the EC50 was above 200 nM. Still for that read-out and setting: for `Cc1cc(C(=O)NC[C@](O)(c2cc3c(c(-c4ccc(F)cc4)n2)OC[C@]3(C)C(N)=O)C(F)(F)F)n[nH]1` [Example 355] the value was above 200 nM. Still for that read-out and setting: to `COc1cc(C(=O)NC[C@](O)(c2cc3c(c(-c4ccc(F)cc4)n2)OC[C@]3(C)C(N)=O)C2CC2)ccc1OC1CC1` [Example 316] belongs below 200 nM; to `C[C@]1(C(N)=O)COc2c1cc([C@@](O)(CNC(=O)c1ccc(C(F)F)nc1)C(F)(F)F)nc2-c1ccc(F)cc1` [Example 408], above 200 nM; to `COc1cc(C(=O)NC[C@](O)(c2cc3c(c(-c4ccc(F)cc4)n2)OC[C@]3(C)C(N)=O)C(F)(F)F)cc2cn(C3(C)CC3)nc12` [Example 232], below 200 nM.

For the molecule `COC(=O)C12CC(C(=O)NC[C@](O)(c3cc4c(c(-c5ccc(F)cc5)n3)OC[C@]4(C)C(N)=O)C(F)(F)F)(C1)C2` [Example 442], the EC50 is above 200 nM. Same read-out and setting: for `CCn1cc2cc(C(=O)NC[C@](O)(c3cc4c(c(-c5ccc(F)cc5)n3)OC[C@]4(C)C(N)=O)C(F)(F)F)cc(Cl)c2n1` [Example 173] the value was below 200 nM. Same read-out and setting: to `C[C@]1(C(N)=O)COc2c1cc([C@@](O)(CNC(=O)c1ccn3nccc3n1)C(F)(F)F)nc2-c1ccc(F)cc1` [Example 433] belongs above 200 nM.

As for `COc1cc(C(=O)NC[C@](O)(c2cc3c(c(-c4ccc(F)cc4)n2)OC[C@]3(C)C(N)=O)C(F)(F)F)cc2c1cnn2C1CC1` [Example 144], the EC50 is above 200 nM.

Turning to `COc1cc(C(=O)NC[C@](O)(c2cc3c(c(-c4ccc(F)cc4)n2)OC[C@]3(C(N)=O)C2CC2)C(F)(F)F)cc2cc(C(F)(F)F)cnc12` [Example 264], the EC50 is above 200 nM.

For the molecule `C[C@]1(C(N)=O)COc2c1cc([C@@](O)(CNC(=O)c1cn3cc(Cl)ccc3n1)C(F)(F)F)nc2-c1ccc(F)cc1` [Example 808], the EC50 is below 200 nM.

Consider `Cc1cnc2c(Nc3ccc(C(F)(F)F)nn3)cc(C(=O)NC[C@](O)(c3cc4c(c(-c5ccc(F)cc5)n3)OC[C@]4(C)C(N)=O)C(F)(F)F)cc2c1` [Example 116], for which the EC50 is below 200 nM.

With `CC(C)c1cc2[nH]ncc2cc1C(=O)NC[C@](O)(c1cc2c(c(-c3ccc(F)cc3)n1)OC[C@]2(C)C(N)=O)C(F)(F)F` [Example 125], the EC50 is above 200 nM.

In the case of `COc1cc(C(=O)NC[C@](O)(c2cc3c(c(-c4ccc(F)c(Cl)c4)n2)OC[C@]3(C)C(N)=O)C2CC2)cn2cc(C3CC3)nc12` [Example 634], the EC50 was below 200 nM. On to `C[C@]1(C(N)=O)COc2c1cc([C@@](O)(CNC(=O)c1ccco1)C(F)(F)F)nc2-c1ccc(F)cc1` [Example 404], for which the EC50 is above 200 nM. The same measure, in the same setting: for `COc1cc(C(=O)NC[C@](O)(c2cc3c(c(-c4ccc(F)cc4)n2)OC[C@@]3(C(N)=O)C2CC2)C(F)(F)F)cc2cc(Cl)c(C)nc12` [Example 274] the value was below 200 nM; for `Cc1ncccc1C(=O)NC[C@](O)(c1cc2c(c(-c3ccc(F)cc3)n1)OC[C@]2(C)C(N)=O)C(F)(F)F` [Example 334], above 200 nM.
